The target in this experiment is T1, BTK (Homo sapiens, UniProt Q06187).
T1 construct: purchased Upstate 14-552
The experiment is described as follows: In vitro BTK kinase assay: BTK-POLYGAT-LS ASSAY. Type of experiment: biochemical. The note with it: ATP 10 uM. Summed up: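 BTK phosphorylation of polyGAT (100 nM final) with ATP at 10 μM final, 10 mM Tris-HCl pH 7.5 kinase buffer, quenched by EDTA after 30 min. Potency given as IC50.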

Drawing on US9029359B2, “Heteroaryl Btk inhibitors” (Biogen Idec MA, Inc., priority 2009, dated 2015), this text covers IC50 for 58 molecules.

A word on the IC50: it is the point on the concentration scale where inhibition reaches its midpoint. A lower IC50 goes with higher potency.

T1 sequence (Q06187 whole entry): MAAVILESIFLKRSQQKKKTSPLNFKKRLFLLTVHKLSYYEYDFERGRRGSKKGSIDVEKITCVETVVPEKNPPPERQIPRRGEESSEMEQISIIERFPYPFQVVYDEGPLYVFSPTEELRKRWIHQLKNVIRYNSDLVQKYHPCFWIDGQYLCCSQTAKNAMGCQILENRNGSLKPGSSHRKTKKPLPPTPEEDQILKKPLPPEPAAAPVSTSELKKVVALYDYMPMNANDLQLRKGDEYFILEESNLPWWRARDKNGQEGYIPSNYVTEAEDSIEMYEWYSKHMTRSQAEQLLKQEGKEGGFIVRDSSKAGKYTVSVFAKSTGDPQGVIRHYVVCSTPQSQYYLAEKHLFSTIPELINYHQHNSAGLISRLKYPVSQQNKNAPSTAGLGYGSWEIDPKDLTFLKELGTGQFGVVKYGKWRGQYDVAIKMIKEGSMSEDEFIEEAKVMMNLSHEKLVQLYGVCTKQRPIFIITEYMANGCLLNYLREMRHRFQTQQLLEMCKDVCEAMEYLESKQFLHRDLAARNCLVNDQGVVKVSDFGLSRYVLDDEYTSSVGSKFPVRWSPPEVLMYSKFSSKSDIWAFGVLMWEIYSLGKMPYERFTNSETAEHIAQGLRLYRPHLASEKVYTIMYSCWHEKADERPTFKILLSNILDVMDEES

`O=C(CNc1cccc2c1CNC2=O)NC1CCCN(c2ncnc3[nH]ccc23)C1` (stereo not shown) [Example 54, (N-(1-(7H-pyrrolo[2,3-d]pyrimidin-4-yl)piperidin-3-yl)-2-(1-oxoisoindolin-4-ylamino)acetamide)]: the IC50 was above 10000 nM.

As for `CC(C)c1ccccc1N[C@@H](C(=O)N[C@@H]1CCCN(c2ncnc3[nH]ccc23)C1)C(C)C` [Example 263], the IC50 fell in the range of 100 to 999 nM.

`O=C(CNc1cccc(Cl)c1Cl)N[C@@H]1CCCN(c2ncnc3[nH]ccc23)C1` [Example 299]: the IC50 was in the range of 100 to 999 nM.

As for `CCC[C@@H](Nc1cccc(Cl)c1)C(=O)N[C@@H]1CCCN(c2ncnc3[nH]ccc23)C1` [Example 215], the IC50 is below 100 nM.

With `O=C(CNC1CCCC1)NC1CCCN(c2ncnc3[nH]ccc23)C1` (stereo not shown) [Example 72], the IC50 fell in the range of 1000 to 10000 nM.

`CN1CCN(c2cccc(NCC(=O)NC3CCCN(c4ncnc5[nH]ccc45)C3)c2)CC1` (stereo not shown) [Example 343] gave an IC50 above 10000 nM.

As to `C[C@@H](Nc1cccc(Cl)c1)C(=O)N[C@@H]1CCCN(c2ncnc3[nH]ccc23)C1` [Example 238], the IC50 was below 100 nM.

In turn, `O=C(CNc1cccc2ncccc12)N[C@@H]1CCCN(c2ncnc3[nH]ccc23)C1` [Example 405] showed an IC50 of 1000 to 10000 nM.

Take `O=C(CNc1ccc(F)cc1)N[C@@H]1CCCN(c2ncnc3[nH]ccc23)C1` [Example 413]: the IC50 lay within 100 to 999 nM.

`Cc1ccc(Cl)cc1NCC(=O)N[C@@H]1CCCN(c2ncnc3[nH]ccc23)C1` [Example 295]: the IC50 is 100 to 999 nM.

`CC(C)(C)C1CCN(S(=O)(=O)c2ccccc2NCC(=O)N[C@@H]2CCCN(c3ncnc4[nH]ncc34)C2)CC1` [Example 256] registered an IC50 below 100 nM.

The molecule `O=C(N[C@@H](C(=O)N[C@@H]1CCCN(c2ncnc3[nH]ccc23)C1)C1CC1)c1ccccc1O` [Example 230] came in with a concentration for half-maximal inhibition (IC50) of 100 to 999 nM.

Turning to `Cc1cc(Cl)ccc1NCC(=O)N[C@@H]1CCCN(c2ncnc3[nH]ccc23)C1` [Example 419], the IC50 was in the range of 100 to 999 nM.

On to `Cc1cccc(NC(C(=O)NC2CCCN(c3ncnc4[nH]ccc34)C2)C2CCCC2)c1` (stereo not shown) [Example 461], for which the IC50 lay within 1000 to 10000 nM.

In turn, `Cc1ccc(NCC(=O)N[C@@H]2CCCN(c3ncnc4[nH]ccc34)C2)cc1Cl` [Example 287] yielded an IC50 of 100 to 999 nM.

Molecule `C[C@@H](O)[C@@H](Nc1cc(F)cc(Cl)c1)C(=O)N[C@@H]1CCCN(c2ncnc3[nH]ncc23)C1` [Example 171] showed an IC50 below 100 nM.

Regarding `C[C@@H](Nc1ccccc1)C(=O)NC1CCCN(c2ncnc3[nH]ccc23)C1` (stereo partly drawn) [Example 101, (2R)—N-(1-(7H-pyrrolo[2,3-d]pyrimidin-4-yl)piperidin-3-yl)-2-(phenylamino)propanamide], the IC50 was 100 to 999 nM.

Turning to `O=C(CNc1ccccc1)N(CC1CCCCC1)C1CCCN(c2ncnc3[nH]ccc23)C1` (stereo not shown) [Example 88, (N-(1-(7H-pyrrolo[2,3-d]pyrimidin-4-yl)piperidin-3-yl)-N-(cyclohexylmethyl)-2-(phenylamino)acetamide)], the IC50 is 1000 to 10000 nM.

Consider `CNc1cc(N2CCC[C@@H](NC(=O)CNc3cc(Cl)cc(Cl)c3)C2)ncn1` [Example 144, (R)-2-(3,5-dichlorophenylamino)-N-(1-(6-(methylamino)pyrimidin-4-yl)piperidin-3-yl)acetamide], for which the IC50 lay within 100 to 999 nM.

Molecule `CC(=O)Nc1cccc(NCC(=O)NC2CCCN(c3ncnc4[nH]ccc34)C2)c1` (stereo not shown) [Example 358] gave an IC50 above 10000 nM.

`C[C@H](O)[C@@H](Nc1cc(Cl)cc(Cl)c1)C(=O)N[C@@H]1CCCN(c2ncnc3[nH]ncc23)C1` [Example 165]: the IC50 is below 100 nM.

`Cn1ncc2c(NCC(=O)NC3CCCN(c4ncnc5[nH]ccc45)C3)cccc21` (stereo not shown) [Example 78, (N-(1-(7H-pyrrolo[2,3-d]pyrimidin-4-yl)piperidin-3-yl)-2-(1-methyl-1H-indazol-4-ylamino)acetamide)] returned an IC50 of 1000 to 10000 nM.

The molecule `O=C(N[C@@H]1CCCN(c2ncnc3[nH]ccc23)C1)[C@@H](CC1CC1)Nc1cccc(Cl)c1` [Example 391] had an IC50 of 1000 to 10000 nM.

With `Cc1cc(NCC(=O)N[C@@H]2CCCN(c3ncnc4[nH]ccc34)C2)cc(OC(F)(F)F)c1` [Example 382], the IC50 was below 100 nM.

`CCC[C@@H](Nc1cc(Cl)cc(Cl)c1)C(=O)N[C@H]1CN(c2ncnc3[nH]ncc23)CC[C@@H]1C` [Example 153] came in with an IC50 below 100 nM.

`O=C(CNc1cccc(-n2cncn2)c1)N[C@@H]1CCCN(c2ncnc3[nH]ccc23)C1` [Example 395]: the IC50 lay in the range of 1000 to 10000 nM.

As for `O=C(N[C@@H]1CCCN(c2ncnc3[nH]ccc23)C1)C1(Nc2ccccc2)CCCC1` [Example 127, (R)—N-(1-(7H-pyrrolo[2,3-d]pyrimidin-4-yl)piperidin-3-yl)-1-(phenylamino)cyclopentanecarboxamide], the IC50 was 1000 to 10000 nM.

In turn, `O=C(NC1CCCN(c2ncnc3[nH]ccc23)C1)c1cc2ccccc2[nH]1` (stereo not shown) [Example 362] registered an IC50 of 1000 to 10000 nM.

The molecule `O=C(CNc1ccccc1OCC1CC1)N[C@@H]1CCCN(c2ncnc3[nH]ncc23)C1` [Example 380] returned an IC50 of 100 to 999 nM.

As to `CCC[C@@H](Nc1cc(Cl)cc(Cl)c1)C(=O)N[C@@H]1CCCN(c2ncnc3[nH]ncc23)C1` [Example 166], the IC50 was below 100 nM.

As for `O=C(CNc1cc(C(F)(F)F)ccc1N1CCCC1)N[C@@H]1CCCN(c2ncnc3[nH]ccc23)C1` [Example 278], the IC50 lay in the range of 100 to 999 nM.

In turn, `O=C(CNc1cccc(O)c1)N[C@@H]1CCCN(c2ncnc3[nH]ccc23)C1` [Example 401] returned a concentration for half-maximal inhibition (IC50) of 1000 to 10000 nM.

Turning to `O=C(CNc1ccc(F)cc1F)N[C@@H]1CCCN(c2ncnc3[nH]ccc23)C1` [Example 454], the IC50 lay within 1000 to 10000 nM.

In turn, `CC(O)c1cccc(NCC(=O)N[C@@H]2CCCN(c3ncnc4[nH]ccc34)C2)c1` (stereo partly shown) [Example 397] had an IC50 of 1000 to 10000 nM.

As for `O=C(CNc1ccc(F)c(F)c1)NC1CCCN(c2ncnc3[nH]ccc23)C1` (stereo not shown) [Example 62, (N-(1-(7H-pyrrolo[2,3-d]pyrimidin-4-yl)piperidin-3-yl)-2-(3,4-difluorophenylamino)acetamide)], the IC50 was in the range of 100 to 999 nM.

In turn, `CC(C)(C)c1cccc(NCC(=O)N[C@@H]2CCCN(c3ncnc4[nH]ccc34)C2)c1` [Example 440] showed an IC50 of 100 to 999 nM.

With `CN(C)S(=O)(=O)c1ccc(F)cc1NCC(=O)N[C@@H]1CCCN(c2ncnc3[nH]ccc23)C1` [Example 246], the IC50 fell in the range of 100 to 999 nM.

Molecule `CCCc1ccccc1NCC(=O)N[C@@H]1CCCN(c2ncnc3[nH]ccc23)C1` [Example 259] returned an IC50 below 100 nM.

As to `O=C(CNc1cccc2cn[nH]c12)NC1CCCN(c2ncnc3[nH]ccc23)C1` (stereo not shown) [Example 75], the IC50 was 1000 to 10000 nM.

On to `O=C(CNc1cccc(CN2CCCCC2)c1)NC1CCCN(c2ncnc3[nH]ccc23)C1` (stereo not shown) [Example 346], for which the IC50 is above 10000 nM.

In turn, `O=C(CNc1ccccc1S(=O)(=O)N1CCCCC1)N[C@@H]1CCCN(c2ncnc3[nH]ncc23)C1` [Example 183] displayed an IC50 below 100 nM.

Consider `CCOc1cccc(NCC(=O)N[C@@H]2CCCN(c3ncnc4[nH]ccc34)C2)c1` [Example 316], for which the IC50 lay within 100 to 999 nM.

`Cc1cccc(C)c1NCC(=O)N[C@@H]1CCCN(c2ncnc3[nH]ccc23)C1` [Example 421] gave an IC50 of 1000 to 10000 nM.

In turn, `O=C(CNc1ccn(-c2ccccc2)n1)NC1CCCN(c2ncnc3[nH]ccc23)C1` (stereo not shown) [Example 79, (N-(1-(7H-pyrrolo[2,3-d]pyrimidin-4-yl)piperidin-3-yl)-2-(1-phenyl-1H-pyrazol-3-ylamino)acetamide)] returned an IC50 above 10000 nM.

For `CC1CCCC(C)N1S(=O)(=O)c1ccccc1NCC(=O)N[C@@H]1CCCN(c2ncnc3[nH]ncc23)C1` (stereo partly shown) [Example 229], the IC50 is below 100 nM.

With `O=C(N[C@@H]1CCCN(c2ncnc3[nH]ccc23)C1)[C@H](Nc1ccccc1)c1ccccc1` [Example 106, (R)—N—((R)-1-(7H-pyrrolo[2,3-d]pyrimidin-4-yl)piperidin-3-yl)-2-phenyl-2-(phenylamino)acetamide], the IC50 is above 10000 nM.

On to `Cn1ccc(-c2cccc(NCC(=O)NC3CCCN(c4ncnc5[nH]ccc45)C3)c2)n1` (stereo not shown) [Example 60], for which the IC50 lay within 1000 to 10000 nM.

The molecule `CC(C)[C@@H](Nc1cc(F)cc(Cl)c1)C(=O)N[C@@H]1CCCN(c2ncnc3[nH]ccc23)C1` [Example 209] returned an IC50 below 100 nM.

For `O=C(CNc1cc(F)ccc1F)N[C@@H]1CCCN(c2ncnc3[nH]ccc23)C1` [Example 446], the IC50 was 100 to 999 nM.

In turn, `CN(C)C(=O)c1cccc(NCC(=O)NC2CCCN(c3ncnc4[nH]ccc34)C2)c1` (stereo not shown) [Example 43, (3-(2-(1-(7H-pyrrolo[2,3-d]pyrimidin-4-yl)piperidin-3-ylamino)-2-oxoethylamino)-N,N-dimethylbenzamide)] registered an IC50 of 1000 to 10000 nM.

Regarding `C#Cc1cccc(NCC(=O)NC2CCCN(c3ncnc4[nH]ccc34)C2)c1` (stereo not shown) [Example 55, (N-(1-(7H-pyrrolo[2,3-d]pyrimidin-4-yl)piperidin-3-yl)-2-(3-ethynylphenylamino)acetamide)], the IC50 is below 100 nM.

Take `C[C@@H](Nc1ccccc1)C(=O)N[C@@H]1CCCN(c2ncnc3[nH]ccc23)C1` [Example 100, (R)—N—((R)-1-(7H-pyrrolo[2,3-d]pyrimidin-4-yl)piperidin-3-yl)-2-(phenylamino)propanamide]: the half-maximal inhibitory concentration (IC50) was 100 to 999 nM.

For `O=C(N[C@@H]1CCCN(c2ncnc3[nH]ccc23)C1)[C@@H](CC1CC1)Nc1cc(F)cc(Cl)c1` [Example 393], the 50% inhibitory concentration (IC50) fell in the range of 1000 to 10000 nM.

With `O=C(CNc1cc(C(F)(F)F)ccc1F)N[C@@H]1CCCN(c2ncnc3[nH]ccc23)C1` [Example 437], the IC50 was 1000 to 10000 nM.

Take `N#Cc1ccc(NCC(=O)N[C@@H]2CCCN(c3ncnc4[nH]ccc34)C2)cc1` [Example 412]: the IC50 is 1000 to 10000 nM.

The molecule `O=C(CNc1ccccc1Sc1ccccc1)N[C@@H]1CCCN(c2ncnc3[nH]ccc23)C1` [Example 194] yielded an IC50 below 100 nM.

`CCC[C@@H](Nc1ccccc1C(C)C)C(=O)N[C@@H]1CCCN(c2ncnc3[nH]ncc23)C1` [Example 376] registered an IC50 of 100 to 999 nM.

As for `O=C(N[C@@H]1CCCN(c2ncnc3[nH]ccc23)C1)C(Nc1ccccc1)C(F)(F)F` (stereo partly shown) [Example 449], the IC50 lay in the range of 1000 to 10000 nM.
